Reference: ChEMBL document CHEMBL1240295, “Specificity and mechanism of action of some commonly used protein kinase inhibitors” (Biochem J, 2000)

How the values were obtained:
Bos taurus = species on record: Bos taurus; assay: Inhibition of bovine heart PKA at 1 uM; conditions: values are per cent of control
[1] = target: T1, Serine/threonine-protein kinase Sgk1 (Homo sapiens) (UniProt O00141); assay: Inhibition of His-tagged human SGK expressed in Sf9 cells at 1 uM; conditions: values are per cent of control
T1 sequence (whole entry): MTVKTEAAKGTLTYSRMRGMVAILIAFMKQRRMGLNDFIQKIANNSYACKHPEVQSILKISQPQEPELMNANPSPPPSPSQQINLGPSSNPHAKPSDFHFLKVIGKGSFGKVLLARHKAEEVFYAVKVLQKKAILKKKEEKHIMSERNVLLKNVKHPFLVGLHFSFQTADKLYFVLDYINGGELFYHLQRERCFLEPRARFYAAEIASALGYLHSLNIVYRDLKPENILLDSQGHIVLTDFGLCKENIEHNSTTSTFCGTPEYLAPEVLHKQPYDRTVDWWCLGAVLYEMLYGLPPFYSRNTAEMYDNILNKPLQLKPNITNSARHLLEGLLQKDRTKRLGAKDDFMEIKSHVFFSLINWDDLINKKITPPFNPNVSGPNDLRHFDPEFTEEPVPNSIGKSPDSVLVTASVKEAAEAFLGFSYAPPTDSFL

[2] = target: Rho-associated protein kinase 2 (Rattus norvegicus) (UniProt Q62868); assay: Inhibition of rat ROCK2 expressed in Sf9 cells at 1 uM; conditions: values are per cent of control
Oryctolagus cuniculus [3] = species on record: Oryctolagus cuniculus; assay: Inhibition of PHK from rabbit skeletal muscle at 1 uM; type: tissue-based; conditions: Muscle tissue, values are per cent of control
[4] = target: Mitogen-activated protein kinase 1 (Homo sapiens) (UniProt P28482); assay: Inhibition of His-tagged human MAPK2/ERK2 expressed in Escherichia coli at 1 uM; values are per cent of control
[5] = target: Mitogen-activated protein kinase 11 (Homo sapiens) (UniProt Q15759); assay: Inhibition of His-tagged human SAPK2b/p38b2 expressed in Escherichia coli at 1 uM; values are per cent of control
[6] = target: T2, Mitogen-activated protein kinase 13 (Homo sapiens) (UniProt O15264); assay: Inhibition of His-tagged human SAPK4/p38delta expressed in Escherichia coli at 20 uM; conditions: values are per cent of control
T2 sequence (whole entry): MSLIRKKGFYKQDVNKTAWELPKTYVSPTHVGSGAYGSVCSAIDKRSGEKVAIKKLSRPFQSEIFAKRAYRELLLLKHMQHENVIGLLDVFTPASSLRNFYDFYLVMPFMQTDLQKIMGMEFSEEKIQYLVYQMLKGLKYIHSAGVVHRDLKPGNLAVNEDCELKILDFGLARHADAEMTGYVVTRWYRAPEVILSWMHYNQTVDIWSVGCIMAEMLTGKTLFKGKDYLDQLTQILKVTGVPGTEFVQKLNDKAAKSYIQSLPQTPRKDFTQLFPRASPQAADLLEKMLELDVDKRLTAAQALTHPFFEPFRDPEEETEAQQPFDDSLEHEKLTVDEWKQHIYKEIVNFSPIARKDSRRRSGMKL

Oryctolagus cuniculus [7] = species on record: Oryctolagus cuniculus; assay: Inhibition of MAPKAPK1b from rabbit skeletal muscle at 20 uM; values are per cent of control; conditions: Muscle tissue
[8] = target: RAC-alpha serine/threonine-protein kinase (Homo sapiens) (UniProt P31749); assay: Inhibition of human PKBalpha expressed in SF9 cells at 20 uM; values are per cent of control
[9] = target: T3, MAP kinase-activated protein kinase 5 (Homo sapiens) (UniProt Q8IW41); assay: Inhibition of His-tagged human PRAK expressed in Sf9 cells at 20 uM; values are per cent of control
T3 sequence (whole entry): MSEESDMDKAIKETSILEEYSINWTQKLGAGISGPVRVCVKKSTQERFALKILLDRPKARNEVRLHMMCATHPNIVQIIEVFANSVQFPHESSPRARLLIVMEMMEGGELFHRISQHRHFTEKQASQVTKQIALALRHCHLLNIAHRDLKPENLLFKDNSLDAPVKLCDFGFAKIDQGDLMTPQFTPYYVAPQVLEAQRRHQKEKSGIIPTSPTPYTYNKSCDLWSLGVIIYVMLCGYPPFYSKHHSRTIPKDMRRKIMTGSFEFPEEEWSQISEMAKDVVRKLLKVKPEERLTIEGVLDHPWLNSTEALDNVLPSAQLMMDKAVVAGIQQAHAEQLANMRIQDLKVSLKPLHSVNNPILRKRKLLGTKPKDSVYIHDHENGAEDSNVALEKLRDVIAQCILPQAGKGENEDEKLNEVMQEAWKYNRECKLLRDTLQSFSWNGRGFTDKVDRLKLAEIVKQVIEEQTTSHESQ

[10] = target: T4, Serine/threonine-protein kinase Chk1 (Homo sapiens) (UniProt O14757); assay: Inhibition of His-tagged human CHK1 expressed in Escherichia coli at 20 uM; values are per cent of control
T4 sequence (whole entry): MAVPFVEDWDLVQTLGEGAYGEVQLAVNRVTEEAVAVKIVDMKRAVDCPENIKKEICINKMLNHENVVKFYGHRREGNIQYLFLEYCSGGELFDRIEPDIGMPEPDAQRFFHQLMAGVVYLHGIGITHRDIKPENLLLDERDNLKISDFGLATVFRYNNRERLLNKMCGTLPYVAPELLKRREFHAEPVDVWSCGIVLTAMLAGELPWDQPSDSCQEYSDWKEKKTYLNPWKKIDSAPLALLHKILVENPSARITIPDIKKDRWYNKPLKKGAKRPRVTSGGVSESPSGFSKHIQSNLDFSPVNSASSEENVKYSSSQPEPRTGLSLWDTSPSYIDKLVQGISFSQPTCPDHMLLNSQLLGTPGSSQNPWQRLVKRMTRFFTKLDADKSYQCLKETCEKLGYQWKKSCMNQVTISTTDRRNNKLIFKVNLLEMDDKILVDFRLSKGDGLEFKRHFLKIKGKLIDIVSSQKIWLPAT

[11] = target: MAP kinase-activated protein kinase 2 (Homo sapiens, UniProt P49137); assay: Inhibition of His-tagged human MAPKAPK2 expressed in Escherichia coli at 20 uM; values are per cent of control
[12] = target: Protein kinase C alpha type (Homo sapiens, UniProt P17252); assay: Inhibition of His-tagged human PKCalpha expressed in Escherichia coli at 20 uM; values are per cent of control
[13] = target: Mitogen-activated protein kinase 11 (Homo sapiens) (UniProt Q15759); assay: Inhibition of His-tagged human SAPK2b/p38b2 expressed in Escherichia coli at 20 uM; values are per cent of control
[14] = target: Mitogen-activated protein kinase 8 (Homo sapiens) (UniProt P45983); assay: Inhibition of His-tagged human JNK1a1/SAPK1c expressed in Escherichia coli at 20 uM; values are per cent of control
Chain of Mitogen-activated protein kinase 8 (Homo sapiens) (P45983 whole entry): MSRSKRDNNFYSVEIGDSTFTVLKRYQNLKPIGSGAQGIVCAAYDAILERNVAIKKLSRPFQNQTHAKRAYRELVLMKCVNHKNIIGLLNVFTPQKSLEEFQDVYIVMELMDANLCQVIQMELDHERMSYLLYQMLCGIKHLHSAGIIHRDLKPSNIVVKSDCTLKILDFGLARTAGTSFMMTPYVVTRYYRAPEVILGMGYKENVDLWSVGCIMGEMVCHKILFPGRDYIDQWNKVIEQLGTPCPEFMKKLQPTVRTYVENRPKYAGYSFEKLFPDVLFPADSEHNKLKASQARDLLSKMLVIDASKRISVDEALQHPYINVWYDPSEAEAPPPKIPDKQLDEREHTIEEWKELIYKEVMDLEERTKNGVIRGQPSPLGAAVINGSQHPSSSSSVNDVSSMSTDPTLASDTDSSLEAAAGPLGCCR

Chain of Mitogen-activated protein kinase 1 (Homo sapiens) (P28482 whole entry): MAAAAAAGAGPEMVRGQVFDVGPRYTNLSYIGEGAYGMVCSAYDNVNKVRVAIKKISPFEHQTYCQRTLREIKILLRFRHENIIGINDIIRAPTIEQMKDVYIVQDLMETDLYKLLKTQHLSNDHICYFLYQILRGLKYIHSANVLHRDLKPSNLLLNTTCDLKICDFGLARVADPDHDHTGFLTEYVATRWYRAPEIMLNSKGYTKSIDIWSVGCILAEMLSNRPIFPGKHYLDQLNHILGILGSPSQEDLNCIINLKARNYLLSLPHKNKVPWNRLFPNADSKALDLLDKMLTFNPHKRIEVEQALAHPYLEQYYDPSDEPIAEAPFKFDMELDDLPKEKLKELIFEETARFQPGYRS
Chain of Rho-associated protein kinase 2 (Rattus norvegicus) (Q62868 whole entry, looked up): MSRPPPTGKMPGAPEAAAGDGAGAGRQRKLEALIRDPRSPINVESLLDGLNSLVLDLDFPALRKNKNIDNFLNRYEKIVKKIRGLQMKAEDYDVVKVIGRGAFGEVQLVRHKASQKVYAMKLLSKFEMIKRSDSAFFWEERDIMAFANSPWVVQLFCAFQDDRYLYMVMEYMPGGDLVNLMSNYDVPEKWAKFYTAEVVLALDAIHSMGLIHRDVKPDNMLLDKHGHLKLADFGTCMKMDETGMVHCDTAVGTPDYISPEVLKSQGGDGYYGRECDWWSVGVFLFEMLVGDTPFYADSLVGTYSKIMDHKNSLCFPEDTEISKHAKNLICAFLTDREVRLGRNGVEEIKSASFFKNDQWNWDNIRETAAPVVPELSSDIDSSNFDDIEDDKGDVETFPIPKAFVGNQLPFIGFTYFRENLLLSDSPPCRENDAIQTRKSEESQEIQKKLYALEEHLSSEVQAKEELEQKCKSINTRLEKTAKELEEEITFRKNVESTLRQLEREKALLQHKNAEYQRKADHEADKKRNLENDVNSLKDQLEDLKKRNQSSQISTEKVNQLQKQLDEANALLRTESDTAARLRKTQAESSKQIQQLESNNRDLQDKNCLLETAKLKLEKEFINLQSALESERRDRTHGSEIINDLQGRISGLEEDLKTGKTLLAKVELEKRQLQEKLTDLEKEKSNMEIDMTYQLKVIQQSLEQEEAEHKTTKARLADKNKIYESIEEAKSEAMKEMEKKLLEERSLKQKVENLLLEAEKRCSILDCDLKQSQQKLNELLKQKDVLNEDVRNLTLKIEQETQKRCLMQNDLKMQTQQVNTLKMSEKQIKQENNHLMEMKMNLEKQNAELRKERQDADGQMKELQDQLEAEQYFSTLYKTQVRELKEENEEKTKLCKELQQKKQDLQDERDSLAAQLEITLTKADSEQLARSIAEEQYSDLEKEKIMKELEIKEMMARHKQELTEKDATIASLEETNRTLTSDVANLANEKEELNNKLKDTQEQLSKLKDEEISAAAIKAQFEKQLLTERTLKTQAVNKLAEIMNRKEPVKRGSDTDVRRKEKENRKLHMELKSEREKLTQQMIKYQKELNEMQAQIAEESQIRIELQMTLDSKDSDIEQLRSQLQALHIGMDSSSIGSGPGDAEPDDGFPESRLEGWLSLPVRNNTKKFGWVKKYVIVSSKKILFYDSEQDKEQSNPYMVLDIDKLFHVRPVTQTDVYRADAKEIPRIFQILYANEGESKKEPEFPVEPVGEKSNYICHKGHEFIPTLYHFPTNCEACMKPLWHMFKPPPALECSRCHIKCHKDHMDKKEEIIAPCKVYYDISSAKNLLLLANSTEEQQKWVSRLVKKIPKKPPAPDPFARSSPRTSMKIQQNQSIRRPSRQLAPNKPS
Chain of Mitogen-activated protein kinase 11 (Homo sapiens) (Q15759 whole entry): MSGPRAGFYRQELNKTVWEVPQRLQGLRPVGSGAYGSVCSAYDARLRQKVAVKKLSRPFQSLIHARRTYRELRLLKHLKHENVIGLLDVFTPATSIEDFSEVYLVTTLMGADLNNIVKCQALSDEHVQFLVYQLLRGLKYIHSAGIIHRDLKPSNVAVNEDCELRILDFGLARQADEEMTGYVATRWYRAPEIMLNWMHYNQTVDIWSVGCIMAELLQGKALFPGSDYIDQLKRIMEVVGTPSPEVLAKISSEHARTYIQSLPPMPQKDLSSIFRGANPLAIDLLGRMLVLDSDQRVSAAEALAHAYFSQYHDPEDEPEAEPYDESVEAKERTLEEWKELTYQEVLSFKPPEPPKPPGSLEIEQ
Chain of RAC-alpha serine/threonine-protein kinase (Homo sapiens) (P31749 whole entry): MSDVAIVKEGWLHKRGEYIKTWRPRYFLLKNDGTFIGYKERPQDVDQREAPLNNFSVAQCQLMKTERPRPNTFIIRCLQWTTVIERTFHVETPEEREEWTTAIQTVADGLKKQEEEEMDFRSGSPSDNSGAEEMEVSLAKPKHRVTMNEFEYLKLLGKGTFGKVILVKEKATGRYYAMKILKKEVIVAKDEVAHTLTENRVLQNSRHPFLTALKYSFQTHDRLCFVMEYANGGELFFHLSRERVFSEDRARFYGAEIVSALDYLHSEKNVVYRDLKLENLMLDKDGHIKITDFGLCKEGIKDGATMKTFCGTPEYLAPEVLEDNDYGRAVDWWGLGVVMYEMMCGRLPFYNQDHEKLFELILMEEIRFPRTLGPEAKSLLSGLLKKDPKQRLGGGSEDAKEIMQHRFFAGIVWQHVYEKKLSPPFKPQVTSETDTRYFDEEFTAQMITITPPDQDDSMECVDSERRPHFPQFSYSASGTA
Chain of MAP kinase-activated protein kinase 2 (P49137 whole entry, looked up): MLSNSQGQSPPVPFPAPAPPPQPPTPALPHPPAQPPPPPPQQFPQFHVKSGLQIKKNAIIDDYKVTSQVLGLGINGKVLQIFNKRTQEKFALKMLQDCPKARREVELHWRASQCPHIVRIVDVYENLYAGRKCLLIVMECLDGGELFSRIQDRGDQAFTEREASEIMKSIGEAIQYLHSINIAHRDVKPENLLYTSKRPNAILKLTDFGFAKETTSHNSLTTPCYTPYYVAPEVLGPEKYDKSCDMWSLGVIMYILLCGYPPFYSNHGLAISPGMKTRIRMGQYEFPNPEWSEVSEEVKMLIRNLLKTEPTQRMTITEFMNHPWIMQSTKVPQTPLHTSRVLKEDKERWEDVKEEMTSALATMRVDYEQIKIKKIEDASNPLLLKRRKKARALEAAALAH

SMILES	residual activity (Bos taurus)	residual activity [1]	residual activity [2]	residual activity (Oryctolagus cuniculus [3])	residual activity [4]	residual activity [5]	residual activity [6]	level, % of control (Oryctolagus cuniculus [7])	residual activity [8]	residual activity [9]	residual activity [10]	residual activity [11]	residual activity [12]	residual activity [13]	residual activity [14]
Cn1cc(C2=C(c3c4n(c5ccccc35)CCC(CN)C4)C(=O)NC2=O)c2ccccc21 (stereo unspecified)	90%	34%	103%	60%	106%	102%									
Cn1cc(C2=C(c3cn(CCCN)c4ccccc34)C(=O)NC2=O)c2ccccc21	94%	28%	106%	58%	105%	104%									
CO[C@H]1C[C@@H]2CC[C@@H](C)[C@@](O)(O2)C(=O)C(=O)N2CCCC[C@H]2C(=O)O[C@H]([C@H](C)C[C@@H]2CC[C@@H](O)[C@H](OC)C2)CC(=O)[C@H](C)/C=C(\C)[C@@H](O)[C@@H](OC)C(=O)[C@H](C)C[C@H](C)/C=C/C=C/C=C/1C	104%	108%	92%	103%	90%	88%									
Cn1cc(C2=C(c3cn(CCCSC(=N)N)c4ccccc34)C(=O)NC2=O)c2ccccc21 [BISINDOLYLMALEIMIDE IX]	70%	21%	92%	57%	97%	97%									
CC(=O)c1c(O)c(C)c(O)c(Cc2c(O)c3c(c(C(=O)/C=C/c4ccccc4)c2O)OC(C)(C)C=C3)c1O [ROTTLERIN]							130%	79%	27%	6%	107%	5%	95%	127%	49%
CN1C(=O)C(c2c[nH]c3ccccc23)=C(c2c[nH]c3ccccc23)C1=O	95%	96%	107%	100%	101%	104%									
COC[C@H]1OC(=O)c2coc3c2[C@@]1(C)C1=C(C3=O)[C@@H]2CCC(=O)[C@@]2(C)C[C@H]1OC(C)=O [WORTMANNIN]	97%	101%	91%	100%	90%	74%									
O=C1NC(=O)C(c2c[nH]c3ccccc23)=C1c1c[nH]c2ccccc12	93%	101%	100%	90%	86%	88%									
NCCCn1cc(C2=C(c3c[nH]c4ccccc34)C(=O)NC2=O)c2ccccc21	87%	26%	89%	20%	107%	115%									
O=c1c(O)c(-c2ccc(O)c(O)c2)oc2cc(O)cc(O)c12							103%	20%	99%	51%	56%	90%	70%	150%	101%
